How the values were obtained:
Type in all cases: cell-based, human
[1] = test system: NK1R (neurokinin 1 receptor) gene; experiment: Gene expression assay by real-time PCR (NK1R); conditions: melanocytes (KaMC), 2 nM substance P, 5 days; control group = 1
Description: (§1) Melanocytes (KaMC) (KCTC 12015BP) deposited in the Korean Collection for Type Culture (KCTC) were cultured in M-254 medium (Gibco BRL, NY, USA) supplemented with Human Melanocyte Growth Supplement (HMGS; Gibco BRL, NY, USA) on a 6-well plate, while changing the medium every other day, in a 5% CO2 incubator at 37° C. until the cells occupied 95% of the plate area (95% confluence). […] The cells not treated with substance P or the alpine wormwood (Artemisia umbelliformis) extract of Example 1 were used as a control group. After removing the medium form the melanocytes cultured on the 6-well plate, the cells were washed 2 times with cold phosphate-buffered saline (PBS) and the remaining water was completely removed. […] 1 μL of the RNA was quantified using Synergy II (Biotek, USA). […] After adding 10 μL of Taqman Gene Expression Master Mix (Life Technologies, USA) and 1 μL of Assays-on-DemandTM (Life Technologies, USA) of NK1R (ACCESSION: NM_001058) and EDN1 (ACCESSION: NM_001168319) genes to 9 μL of the diluted cDNA, the expression of the genes was analyzed by relative quantification using 7500 Fast Real-Time PCR (Life Technologies, USA) with glyceraldehyde 3-phosphate dehydrogenase (GAPDH, ACCESSION: NM001256799) as a control gene. […]

EDN1 (endothelin 1) gene = experiment: Gene expression assay by real-time PCR (EDN1); conditions: melanocytes (KaMC), 2 nM substance P, 5 days; control group = 1
Description: as §1

endothelin 1 (EDN1) = experiment: Endothelin 1 ELISA assay of culture medium; conditions: melanocytes (KaMC) medium, 2 nM substance P; control group = 100%
Description: When the density of the melanocytes on the 6-well plate reached about 80% (˜80% confluence), they were incubated for a total of 5 days with 2 nM of stress-inducing substance P (Bachem Fechemikalien, Bubendorf, Switzerland) or the alpine wormwood (Artemisia umbelliformis) extract of Example 1 of different concentrations (0, 0.1, 1, 2 and 5 ppm). The cells not treated with substance P or the alpine wormwood (Artemisia umbelliformis) extract of Example 1 were used as a control group.
The culture medium of the cells treated with the extract in (2) of Test Example 1 were recovered and the amount of endothelin 1 (EDN1) comprised in the medium was measured at 450 nm using the human total endothelin ELISA kit (MyBioSource, USA).
Endothelin content (%)=(Absorbance/Total protein content)×100 [Equation 1]

In the case of `CSCC[C@H](NC(=O)[C@H](CC(C)C)NC(=O)CNC(=O)[C@H](Cc1ccccc1)NC(=O)[C@H](Cc1ccccc1)NC(=O)[C@H](CCC(N)=O)NC(=O)[C@H](CCC(N)=O)NC(=O)[C@@H]1CCCN1C(=O)[C@H](CCCCN)NC(=O)[C@@H]1CCCN1C(=O)[C@@H](N)CCCN=C(N)N)C(N)=O` [substance P], the “expression of the NK1R gene (relative quantification vs GAPDH)” value [1] is reported as 4.2, the “expression of the EDN1 gene (relative quantification vs GAPDH)” value (EDN1 (endothelin 1) gene) is reported as 3.6 and the “content of endothelin 1 (absorbance/total protein content x 100)” value (endothelin 1 (EDN1)) is reported as 124%.

— patent US20170105926A1, “COMPOSITION COMPRISING EXTRACT OF ALPINE WORMWOOD” (AMOREPACIFIC CORPORATION, priority 2014, published 2017)
